Test results published in patent publication US20140242178A1, “TASTE-MASKED FORMULATIONS OF RALTEGRAVIR” (priority 2011, published 2014).

Assays:
[1] = cited from earlier work
[2] = IMPAACT P1066: safety in HIV-1 infected pediatric patients; format: in vivo, human
From the text: Raltegravir has been studied in 126 antiretroviral treatment-experienced HIV-1 infected pediatric patients 2 through 18 years of age, in combination with other antiretroviral agents in IMPAACT P1066. Of the 126 patients, 96 received only the final recommended dose through at least 24 weeks.

[3] = laboratory abnormality, pediatric patients

SMILES	solubility in acetonitrile ([1]; acetonitrile)	solubility in ethanol ([1]; ethanol)	solubility in isopropanol ([1]; isopropanol)	solubility in methanol ([1]; methanol)	solubility in water ([1]; water)	ALT increased, Grade 3 [2, 3]	AST increased, Grade 3 [2, 3]	AST increased, Grade 4 [2, 3]	GGT increased, Grade 3 [2, 3]	bilirubin increased, Grade 3 [2, 3]	creatinine increased, Grade 3 [2, 3]	glucose abnormal, Grade 3 [2, 3]	glucose decreased, Grade 3 [2, 3]	magnesium decreased, Grade 3 [2, 3]	neutrophil count decreased, Grade 4 [2, 3]	neutrophil count decreased, Grade 3 ([2]; laboratory abnormality, pediatric patients 2 through 18 years)	Grade 3 or higher adverse reactions (psychomotor hyperactivity, abnormal behavior, insomnia) ([2]; pediatric patients)	frequency, type and severity of drug related adverse reactions ([2]; pediatric patients)	serious Grade 2 possibly drug related allergic rash ([2]; pediatric patients)
Cc1nnc(C(=O)NC(C)(C)c2nc(C(=O)NCc3ccc(F)cc3)c([O-])c(=O)n2C)o1.[K+] [Raltegravir potassium, N-[(4-Fluorophenyl)methyl]-1,6-dihydro-5-hydroxy-1-methyl-2-[1-methyl-1-[[(5-methyl-1,3,4-oxadiazol-2-yl)carbonyl]amino]ethyl]-6-oxo-4-pyrimidinecarboxamide monopotassium salt]	very slightly soluble	very slightly soluble	insoluble	slightly soluble	soluble														
Cc1nnc(C(=O)NC(C)(C)c2nc(C(=O)NCc3ccc(F)cc3)c(O)c(=O)n2C)o1 [Raltegravir]						1.1%	1.1%	1.1%	1.1%	1.1%	1.1%	1.1%	1.1%	1.1%	1.1%	7.4%	one patient	comparable to those observed in adults	one
